Laboratory results as given in PMC11969031, “The homeostasis of β‐alanine is key for Arabidopsis reproductive growth and development” (The Plant Journal, 2025).

Assays:
[1] = molecular target: T1, Col-0-PYD4 (AT3G08860, recombinant) (Arabidopsis thaliana, UniProt Q9SR86); assay: coupled NADH assay at […] nm (pyruvate or alanine dehydrogenase); assay type: biochemical; conditions: 50 mM Tris pH 8.0, 30°C
T1 construct: first 31 residues (signal peptide) removed; codon-optimised synthetic gene, pET24a, C-terminal His6; E. coli BL21(DE3); Ni-NTA
T1 sequence (Q9SR86 32-481): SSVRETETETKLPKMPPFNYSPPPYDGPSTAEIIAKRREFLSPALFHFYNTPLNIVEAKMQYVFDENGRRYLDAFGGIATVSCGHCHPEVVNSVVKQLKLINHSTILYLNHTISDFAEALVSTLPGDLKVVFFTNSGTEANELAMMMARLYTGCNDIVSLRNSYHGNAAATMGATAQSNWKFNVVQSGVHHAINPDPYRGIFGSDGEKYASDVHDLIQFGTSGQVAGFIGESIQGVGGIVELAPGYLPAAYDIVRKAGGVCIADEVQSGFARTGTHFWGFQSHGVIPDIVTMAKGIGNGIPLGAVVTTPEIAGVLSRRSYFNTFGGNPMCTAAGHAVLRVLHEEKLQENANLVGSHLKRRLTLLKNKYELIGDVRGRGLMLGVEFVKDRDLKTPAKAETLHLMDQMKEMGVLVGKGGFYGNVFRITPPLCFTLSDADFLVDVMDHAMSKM

[2] = molecular target: T2, AGT2_weak (AT4G39660, recombinant) (Arabidopsis thaliana, UniProt Q940M2); assay: coupled NADH assay at […] nm (pyruvate dehydrogenase); assay type: biochemical; conditions: amino donor; 50 μM glyoxylate/2-oxoglutarate/pyruvate, 3 μM enzyme, 50 mM Tris pH 8.0, 30°C; degradation direction only
T2 construct: gene AGT2; first 29 residues (signal peptide) of 476 removed; codon-optimised synthetic gene, pET24a, C-terminal His6; E. coli BL21(DE3); Ni-NTA
T2 sequence (Q940M2 30-476): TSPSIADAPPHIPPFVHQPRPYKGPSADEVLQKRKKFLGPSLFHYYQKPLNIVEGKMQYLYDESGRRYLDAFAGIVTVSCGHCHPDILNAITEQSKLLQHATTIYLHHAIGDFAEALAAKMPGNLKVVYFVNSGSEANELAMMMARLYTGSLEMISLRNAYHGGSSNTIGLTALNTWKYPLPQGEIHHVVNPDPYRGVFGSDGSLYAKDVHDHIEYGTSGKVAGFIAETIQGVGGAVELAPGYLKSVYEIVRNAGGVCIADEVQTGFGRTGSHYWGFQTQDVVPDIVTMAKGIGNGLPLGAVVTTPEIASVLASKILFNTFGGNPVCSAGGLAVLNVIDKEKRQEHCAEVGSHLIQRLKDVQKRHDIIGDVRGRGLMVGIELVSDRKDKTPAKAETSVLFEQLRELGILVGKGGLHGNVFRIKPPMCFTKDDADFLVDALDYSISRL

SMILES | coupled NADH assay at 340 nm (pyruvate or alanine dehydrogenase) ([1]; amino donor (positive control enzyme; works in both directions)) | coupled NADH assay at 340 nm (pyruvate dehydrogenase) [2] | coupled NADH assay at 340 nm (pyruvate or alanine dehydrogenase) ([1]; amino donor, acceptor not given)
C[C@H](N)C(=O)O [L‐alanine] | activity when L‐alanine was used as the amino donor, but unlike PYD4, AGT2 only functions | We also detected activity when L‐alanine was used as the amino donor | –
NCCC(=O)O [β‐alanine] | – | – | PYD4 was also able to use β‐alanine as an amino donor
